The source made the active and inactive calls. How the calls were made is not given here.

In this data set the test system is rodent lifetime carcinogenesis bioassay, tumor incidence TD50. As to the kind of experiment: chronic cancer bioassays in animals – CPDB, compiled studies (AID 1745844).

Turning to `CCCN=[N+]([O-])CCC`, the TD50 is 0.00736 mg/kg/day (rat, strain Sprague-Dawley, males, by gavage, site: liver, lesion: hepatocellular carcinoma, dosed 26 weeks, study length 77 weeks); 0.000723 mg/kg/day (rat, strain Sprague-Dawley, males, by gavage, site: nasal cavity, lesion: esthesioneuroepithelioma, dosed 26 weeks, study length 77 weeks); 0.00736 mg/kg/day (rat, strain Sprague-Dawley, males, by gavage, site: nasal cavity, lesion: papilloma, dosed 26 weeks, study length 77 weeks); 0.000596 mg/kg/day (rat, strain Sprague-Dawley, males, by gavage, site: nasal cavity, lesion: several types, types named in the paper, dosed 26 weeks, study length 77 weeks); 0.00038 mg/kg/day (rat, strain Sprague-Dawley, males, by gavage, site: skin, lesion: keratoacanthoma, dosed 26 weeks, study length 77 weeks). In addition, the carcinogen call (rat, strain Sprague-Dawley, males, by gavage, site: skin, lesion: several types, types named in the paper, dosed 26 weeks, study length 77 weeks) was “positive”.

As to `Oc1c(Cl)cc(Cl)c(Cl)c1Cc1c(O)c(Cl)cc(Cl)c1Cl`, the carcinogen call is “negative (inactive)” (mouse, strain C57BL, females, in feed, site: any site (literature study), lesion: several types, types named in the paper, dosed 104 weeks, study length 104 weeks); “negative (inactive)” (mouse, strain C57BL, males, in feed, site: liver, lesion: one or several types, types not named, dosed 104 weeks, study length 104 weeks); “negative (inactive)” (mouse, strain C57BL, males, in feed, site: lung, lesion: one or several types, types not named, dosed 104 weeks, study length 104 weeks); “negative (inactive)” (mouse, strain XVII/G, females, in feed, site: liver, lesion: one or several types, types not named, dosed 104 weeks, study length 104 weeks); “negative (inactive)” (rat, strain Fischer 344, females, in feed, site: any site (literature study), lesion: several types, types named in the paper, dosed 106 weeks, study length 106 weeks). The TD50 runs as follows: (mouse, strain C57BL, females, in feed, site: liver, lesion: hepatoma, dosed 104 weeks, study length 104 weeks) 434 mg/kg/day (inactive); (mouse, strain C57BL, males, in feed, site: any site (literature study), lesion: several types, types named in the paper, dosed 104 weeks, study length 104 weeks) 900 mg/kg/day (inactive); (mouse, strain XVII/G, females, in feed, site: any site (literature study), lesion: several types, types named in the paper, dosed 104 weeks, study length 104 weeks) 39.4 mg/kg/day (inactive); (mouse, strain XVII/G, females, in feed, site: lung, lesion: one or several types, types not named, dosed 104 weeks, study length 104 weeks) 33.4 mg/kg/day (inactive); (mouse, strain XVII/G, males, in feed, site: any site (literature study), lesion: several types, types named in the paper, dosed 104 weeks, study length 104 weeks) 17.8 mg/kg/day (inactive); (mouse, strain XVII/G, males, in feed, site: liver, lesion: adenoma, dosed 104 weeks, study length 104 weeks) 450 mg/kg/day (inactive). Further, the TD50 was 17.8 mg/kg/day (inactive) (mouse, strain XVII/G, males, in feed, site: lung, lesion: one or several types, types not named, dosed 104 weeks, study length 104 weeks); 30.4 mg/kg/day (rat, strain Fischer 344, males, in feed, site: any site (literature study), lesion: several types, types named in the paper, dosed 106 weeks, study length 106 weeks); 41.3 mg/kg/day (inactive) (rat, strain Fischer 344, males, in feed, site: subcutaneous tissue, lesion: fibrosarcoma, dosed 106 weeks, study length 106 weeks); 57.5 mg/kg/day (rat, strain Fischer 344, males, in feed, site: tunica vaginalis, lesion: mesothelioma, NOS, dosed 106 weeks, study length 106 weeks).

On to `CCNC(=O)N(CCO)N=O`, for which the TD50 was 0.501 mg/kg/day (rat, strain Fischer 344, females, in drinking water, site: mammary tissue, wider than the gland, lesion: carcinoma, dosed 30 weeks, study length 104 weeks); 1.09 mg/kg/day (rat, strain Fischer 344, males, in drinking water, site: liver, lesion: one or several types, types not named, dosed 30 weeks, study length 104 weeks); 0.446 mg/kg/day (rat, strain Fischer 344, males, in drinking water, site: lung, lesion: one or several types, types not named, dosed 30 weeks, study length 104 weeks); 0.754 mg/kg/day (rat, strain Fischer 344, males, in drinking water, site: nervous system, lesion: one or several types, types not named, dosed 30 weeks, study length 104 weeks); 0.641 mg/kg/day (rat, strain Fischer 344, males, in drinking water, site: skin, lesion: one or several types, types not named, dosed 30 weeks, study length 104 weeks); 0.576 mg/kg/day (rat, strain Fischer 344, males, in drinking water, site: tunica vaginalis, lesion: mesothelioma, dosed 30 weeks, study length 104 weeks).

Consider `CC(C)=NO`, for which the TD50 (rat, strain MRC-Wistar, females, in drinking water, site: any site (literature study), lesion: several types, types named in the paper, dosed 78 weeks, study length 130 weeks) was 91.5 mg/kg/day; the TD50 (rat, strain MRC-Wistar, females, in drinking water, site: liver, lesion: hemangioma, dosed 78 weeks, study length 130 weeks) is 408 mg/kg/day (inactive); the TD50 (rat, strain MRC-Wistar, females, in drinking water, site: liver, lesion: hepatocellular adenoma, dosed 78 weeks, study length 130 weeks) was 127 mg/kg/day (inactive); the TD50 (rat, strain MRC-Wistar, females, in drinking water, site: liver, lesion: several types, types named in the paper, dosed 78 weeks, study length 130 weeks) was 127 mg/kg/day (inactive); the TD50 (rat, strain MRC-Wistar, males, in drinking water, site: any site (literature study), lesion: several types, types named in the paper, dosed 78 weeks, study length 110 weeks) amounted to 12.8 mg/kg/day; the TD50 (rat, strain MRC-Wistar, males, in drinking water, site: liver, lesion: hemangioma, dosed 78 weeks, study length 110 weeks) amounted to 136 mg/kg/day. Besides, the TD50 was 12.1 mg/kg/day (rat, strain MRC-Wistar, males, in drinking water, site: liver, lesion: hepatocellular adenoma, dosed 78 weeks, study length 110 weeks) and 12.1 mg/kg/day (inactive) (rat, strain MRC-Wistar, males, in drinking water, site: liver, lesion: several types, types named in the paper, dosed 78 weeks, study length 110 weeks).

Take `S=C(NC1CCCCC1)NC1CCCCC1`: the TD50 is, setting by setting: (mouse, strain B6C3F1, females, in feed, site: any site (literature study), lesion: several types, types named in the paper, dosed 109 weeks, study length 103 weeks) 122000 mg/kg/day (inactive); (mouse, strain B6C3F1, females, in feed, site: lung, lesion: alveolar/bronchiolar adenoma + alveolar/bronchiolar carcinoma, dosed 109 weeks, study length 103 weeks) 1.11e+08 mg/kg/day; (rat, strain Fischer 344, males, in feed, site: any site (literature study), lesion: several types, types named in the paper, dosed 109 weeks, study length 109 weeks) 3910 mg/kg/day; (rat, strain Fischer 344, males, in feed, site: liver, lesion: hepatocellular adenoma + hepatocellular carcinoma + neoplastic nodule, dosed 109 weeks, study length 109 weeks) 15600 mg/kg/day; (rat, strain Fischer 344, males, in feed, site: skin, lesion: basal-cell carcinoma, dosed 109 weeks, study length 109 weeks) 26100 mg/kg/day; (rat, strain Fischer 344, males, in feed, site: thyroid gland, lesion: c-cell adenoma, dosed 109 weeks, study length 109 weeks) 5480 mg/kg/day (inactive). For the setting “rat, strain Fischer 344, males, in feed, site: thyroid gland, lesion: follicular-cell adenoma + follicular-cell carcinoma, dosed 109 weeks, study length 109 weeks”, the TD50 was found to be 7410 mg/kg/day. The carcinogen call is “negative (inactive)” (mouse, strain B6C3F1, males, in feed, site: any site (literature study), lesion: several types, types named in the paper, dosed 109 weeks, study length 103 weeks) and “negative (inactive)” (rat, strain Fischer 344, females, in feed, site: any site (literature study), lesion: several types, types named in the paper, dosed 109 weeks, study length 109 weeks).

As a reminder, the TD50 is the dose at which the toxic effect under study appears in half of the subjects.

The record behind these values is PubChem BioAssay AID1745844 (Carcinogenic Potency Database (CPDB), 2022).
